Measurements from patent US8785452B2, “Anti-infective compounds” (priority 2008, dated 2014).
Like-named read-outs stand apart in the source and are kept apart here.

Test system: M. tuberculosis H37Rv-GFP
Assay: microbe, parasite or virus in culture
Assay type: cell-based, Mycobacterium tuberculosis
Settings: Mycobacterium tuberculosis, H37RV, Macrophage
[1] = confirmation, 20 uM, intracellular, read-out: QIM Confirm % Inhibition 20 uM
[2] = primary screen, 20 μM, intracellular, read-out: Primary QIM % Inhibition
[3] = read-out: Primary QIM % Inhibition
[4] = read-out: QIM Confirm % Inhibition 20 uM

CCOc1cc(/C=N\NC(=O)COc2ccc(C(C)C)cc2)ccc1O [IPK 000 138 40]
inhibition at 20 µM [1]: 86.4% | inhibition at 20 µM [2]: 75%

CC(C)(C)c1ccc(O)c(C(=O)Oc2ccccc2)c1 [IPK 000 143 45]
inhibition at 20 µM [1]: 83.5% | inhibition at 20 µM [2]: 81.2%

CCCC(C)c1ccc(OCC(=O)N/N=C/c2ccsc2)cc1 (stereo not shown) [IPK 000 148 11]
inhibition at 20 µM [1]: 86.6% | inhibition at 20 µM [2]: 65.4%

COc1ccc(/C=N/NC(=O)c2ccncc2)cc1 [IPK 000 219 28]
inhibition at 20 µM [1]: 46.2% | inhibition at 20 µM [2]: 106%

O=C(/C=C/c1ccccc1F)c1ccc(Cl)cc1 [IPK 000 172 35]
inhibition at 20 µM [1]: 59.9% | inhibition at 20 µM [2]: 0.9%

Cc1ccc(C(=O)NCCSC2CCCCC2)cc1[N+](=O)[O-] [IPK 000 229 50]
inhibition at 20 µM [1]: 83.6% | inhibition at 20 µM [2]: 60.1%

O=C(Oc1cccc2cccnc12)c1ccccc1 [IPK 000 251 49]
inhibition at 20 µM [3]: 27% | inhibition at 20 µM [4]: 15%

O=C(Nc1ccc(C(F)(F)F)cc1)Nc1cccc(F)c1 [IPK 000 146 91]
inhibition at 20 µM [1]: 70% | inhibition at 20 µM [2]: 57%

C#C/C(=C/c1ccc(-c2ccc(N3CCCCC3)c([N+](=O)[O-])c2)o1)C(=O)OCC [IPK 000 229 72]
inhibition at 20 µM [1]: 90.7% | inhibition at 20 µM [2]: 69.4%

O=C(NCCC1=CCCCC1)c1ccc(Br)o1 [IPK 000 184 56]
inhibition at 20 µM [1]: 72.7% | inhibition at 20 µM [2]: 85.1%

O=C(NC12CC3CC(CC(C3)C1)C2)N1CCN(c2ccccc2)CC1 [IPK 000 249 84]
inhibition at 20 µM [1]: 80.9% | inhibition at 20 µM [2]: 78.2%

CCc1cccc(NC(=O)c2cccs2)c1 [IPK 000 257 61]
inhibition at 20 µM [1]: 79.9% | inhibition at 20 µM [2]: 71.5%

Cc1ccc(CNC(=O)c2ccc(F)cc2)cc1 [IPK 000 205 42]
inhibition at 20 µM [1]: 69.3% | inhibition at 20 µM [2]: 71.5%

CCc1ccc(NC(=O)C23CC4CC(CC(C4)C2)C3)cc1 [IPK 000 228 46]
inhibition at 20 µM [1]: 37.8% | inhibition at 20 µM [2]: 22.5%

C/C(=N\NC(=O)c1ccccc1)c1ccc2ccccc2c1 [IPK 000 139 17]
inhibition at 20 µM [1]: 65.8% | inhibition at 20 µM [2]: 72.9%

O=C(CCCCC1=CCCS1)Nc1ccc(C(F)(F)F)cc1 [IPK 000 148 64]
inhibition at 20 µM [1]: 71.4% | inhibition at 20 µM [2]: 72.5%

COc1cccc(C(O)c2cccs2)c1 (stereo not shown) [IPK 000 171 27]
inhibition at 20 µM [1]: 95.2% | inhibition at 20 µM [2]: 95.2%

C/C(=C\c1ccc2c(c1)OCO2)[N+](=O)[O-] [IPK 000 240 37]
inhibition at 20 µM [3]: 17% | inhibition at 20 µM [4]: 67.5%

Cc1ccn2cc(-c3ccc(F)cc3)nc2c1 [IPK 000 129 91]
inhibition at 20 µM [1]: 38.2% | inhibition at 20 µM [2]: -36%

O=C(c1cc([N+](=O)[O-])cc([N+](=O)[O-])c1)N1CCc2ccccc2C1 [IPK 000 046 86]
inhibition at 20 µM [3]: 26.6% | inhibition at 20 µM [4]: 40.8%

O=c1c(/C=N/Cc2ccco2)c(NCc2ccco2)nc2ccccn12 [IPK 000 130 26]
inhibition at 20 µM [1]: 29.9% | inhibition at 20 µM [2]: 66.3%

Cc1cc(OCC(=O)NN)ccc1Br [IPK 000 192 59]
inhibition at 20 µM [1]: 81.1% | inhibition at 20 µM [2]: 65.3%

Cc1ccsc1/C=N/NC(=O)Cc1cc(=O)[nH][nH]1 [IPK 000 219 30]
inhibition at 20 µM [1]: 93% | inhibition at 20 µM [2]: 104%

Cc1ccc(C)n1-c1ccc(C(=O)O)c(O)c1 [IPK 000 200 47]
inhibition at 20 µM [1]: 19.1% | inhibition at 20 µM [2]: 6.3%

CCOc1ccc(C(=O)/C=C/c2ccccc2F)cc1 [IPK 000 172 34]
inhibition at 20 µM [1]: 12.5% | inhibition at 20 µM [2]: -82.4%

C/C(=N\NC(=S)Nc1cccc(C)c1)c1ccccc1O [IPK 000 173 06]
inhibition at 20 µM [1]: 15.8% | inhibition at 20 µM [2]: 44%

C/C(=N\NC(=O)COc1cccc(Br)c1)c1ccccn1 [IPK 000 157 55]
inhibition at 20 µM [1]: 19.9% | inhibition at 20 µM [2]: 22%

COc1cc2ccccc2cc1C(=O)Nc1nccs1 [IPK 000 133 02]
inhibition at 20 µM [1]: 37.2% | inhibition at 20 µM [2]: -44.8%

NNC(=O)CSc1nc2ccccc2s1 [IPK 000 160 45]
inhibition at 20 µM [1]: 70.7% | inhibition at 20 µM [2]: 66%
